# Measurements reported in patent publication US12687540B2, “Amyloid-binding compounds and methods of use thereof” (Vanderbilt University, priority 2019, dated 2026).
# Like-named read-outs stand apart in the source and are kept apart here.
# What was measured:
# [1] = molecular target: T1, endogenous amyloid-β (Abeta) plaques in the 5XFAD brain lysate (Homo sapiens, UniProt P05067); assay: HATCO assay (high-throughput amyloid Thioflavin competitive binding optical assay), thioflavin-T fluorescence readout; parameters: species or system 5XFAD mice; conditions: for IC50: competition with thioflavin-T for Abeta in 5XFAD brain lysate, 384-well, 4-parameter fit
# T1 construct: coexpressed five familial AD (FAD) and additively increase Abeta-42 production; from tissue; host or cells: midbrain lysate (supernatant) of 8-month-old 5XFAD transgenic mice
# Excerpt: However, when bound to Abeta plaque, its FL increases dramatically and results in a strong FL signal with a characteristically shifted λmax to approximately 485 nm. In view thereof, as opposed to existing methods that detect binding of the dye through increased fluorescence, the present methods identify amyloid-binding compounds through a lack of binding between the dye and the amyloid, as evidenced by attenuated fluorescence. […] Accordingly, in some embodiments, the method of screening includes combining the target compound(s) with a dye (e.g., Thioflavin-T) and endogenous amyloid (e.g., endogenous amyloid-β (Abeta) plaques in the 5XFAD brain lysate), then measuring the fluorescence of the combination. In some embodiments, the fluorescence of the combination is then compared to negative and/or positive control.
# HATCO competitive binding study. […] To facilitate the generation of concentration-response curves, fluorescence at each data point was averaged on a compound-by-compound basis and plotted as a function of concentration. […] From this curve, IC50 values for each compound were calculated by fitting the data to a 4-parameter logistical model in the GraphPad software package.
# Brain lysate preparation—Excised midbrains of 5XFAD (8-month-old) or wt mice (age-matched) were homogenized for 5 min in 200 μL of buffer comprised of 21.4 g sucrose, 5 mL of 1 M tris base, and 0.5 mL of 0.5 M EDTA/250 mL DPBS using the T-25 basic Ultra-Turrax homogenizer. Additional 100 μL aliquots of this buffer were then added to the homogenized sample and re-homogenized for 2 min until a total added volume of 800 μL was attained. The sample was diluted to 4 mL total volume using another buffer comprised of 5% BSA, and 0.03% Tween 20 in DPBS solution. Roche Complete protease inhibitor tablets were added to both buffers immediately prior to use (1 tablet/10 mL buffer). The sample was centrifuged at 16,000 g for 30 min at 4° C. Aliquots of the supernatant were stored at −80° C. until use.
# HATCO HTS assay—To translate the assay initially performed on a cuvette to a 384-well format, the general protocol includes the following steps: A fresh stock solution of thioflavin-T was prepared in distilled and deionized water after passing through a micro filter. The concentration of […] was measured according to Beer's law with an extinction coefficient of 26,620 M^−1cm^−1 at 416 nm. The stock solution was stored in darkness using aluminum foil and kept at 4° C. throughout the assay. Unless stated, each assaying well contained 10 μM of thioflavin-T, 5 mg/mL of freshly isolated and homogenized brain lysate (5 μL) obtained from 5XFAD mice and with 30 μM of screening compounds. […] For the negative control, the wells contained the same components minus positive control. The protein concentration of brain lysate throughout the study was normalized. After equilibration for 10 min at room temperature, the FL signal of the sample was measured using a Biotek Synergy NEO plate reader at an emission lambda max of 485 nm using an excitation of 465 nm and the signals of the different conditions were analyzed. The final volume per well was 50 μL. All assays were performed using a single dose of screening compounds in triplicate.
# Once the preliminary hit compounds were identified, a cross-screening protocol was employed to validate the hits with duplicated concentrations for each hit.
# [2] = mouse, in vivo
# Procedure: In the HPLC experiment, WT and 5XFAD mice (n=3, each) were injected with promethazine via the tail veins, and subsequently perfused 10 min or 4 h post-injection. Freshly isolated brains were homogenized to facilitate extraction and quantification via HPLC using the procedure we reported earlier.
# Abeta plaques = assay: Autoradiography of human brain tissues from Alzheimer's disease patients with [11C]promethazine PET probe; assay type: binding; conditions: human AD brain tissue sections soaked in probe in PBS; compared with a large excess of cold promethazine
# Excerpt: (A) Tissues ([…]) on glass slides were soaked in [^11C]promethazine PET probe diluted in PBS solution. (B) Tissues were soaked in the same solution as (A), albeit with the presence of a large excess of “cold” (unlabeled) promethazine, denoted as PMZ in the figure.
# T1 sequence (P05067 672-713 limits assumed): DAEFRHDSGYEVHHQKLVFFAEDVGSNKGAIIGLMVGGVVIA
molecule,measurement,setting,value
"1,6,7,1′,6′,7′-Hexahydroxy-5,5′-diisopropyl-3,3′-dimethyl-[2,2′]binaphthalenyl-8,8′-dicarbaldehyde [VU0243640]",IC50,[1],84.2 µM
"CC(CN1c2ccccc2Sc2ccccc21)N(C)C (centres unmarked) [Promethazine, N,N-dimethyl-1-(10H-phenothiazin-10-yl)propan-2-amine]",increase in promethazine retention in Aβ-burdened brains (5XFAD vs WT),"[2]; 5XFAD versus WT, 10 min",~4 fold
same,level of promethazine measured in brain (mean),"[2]; 5XFAD, 10 min",9.62 µg
same,original dose retained within the brain,"[2]; 5XFAD, 10 min",2%
same,original dose retained within the brain,"[2]; 5XFAD, 240 min",0.5%
same,level of promethazine measured in brain (mean),[2]; 10 min,2.57 µg
same,original dose retained within the brain,[2]; 10 min,0.5%
same,original dose retained within the brain,[2]; 240 min,0.01%
same,IC50,[1],53.6 µM
"Oc1ccc(/C=C/c2cc(O)cc(O)c2)cc1 [Resveratrol, (E)-5-(4-hydroxystyryl)benzene-1,3-diol]",FL signal of thioflavin-T at 485 nm was reduced,[1]; 100 μM,4.4%
same,FL signal of thioflavin-T at 485 nm was reduced,[1]; 500 μM,25.9%
same,FL signal of thioflavin-T at 485 nm was reduced,[1]; 2000 μM,51%
"O=C(O)c1cc(/N=N/c2ccc(S(=O)(=O)Nc3ccccn3)cc2)ccc1O [VU0243360, 2-Hydroxy-5-[4-(pyridine-2-ylsulfamoyl)-phenylazo]-benzoic acid]",IC50,[1],68.1 µM
"O=C1C(Cl)=C(Cl)C(=O)C(Cl)=C1Cl [VU0243635, 2,3,5,6-Tetrachloro-[1,4]benzoquinone]",IC50,[1],90.8 µM
"Nc1ccc(/N=N/c2ccccc2)c(N)n1 [VU0244402, 3-Phenylazo-pyridine-2,6-diamine]",IC50,[1],74.3 µM
"O=C(N/N=C/c1ccc([N+](=O)[O-])o1)c1cc([N+](=O)[O-])cc([N+](=O)[O-])c1O [VU0656139, 2-Hydroxy-3,5-dinitro-benzoic acid (5-nitro-furan-2-ylmethylene)-hydrazide]",IC50,[1],61.2 µM
CC(CN1c2ccccc2Sc2ccccc21)N(C)C (centres unmarked) [[^11C]promethazine],binding to Abeta plaques by autoradiography,Abeta plaques,bound to Abeta plaques
